Test results: patent US11540517B2, “Active compound combinations having insecticidal/acaricidal properties” (Bayer Aktiengesellschaft, priority 2017, dated 2023)

Key:
Assay type in all cases: in vivo
[1] = system: Tetranychus urticae; experiment: Tetranychus urticae - spray test OP-resistant; settings: mortality
Method: (§1) The expected efficacy of a given combination of two compounds is calculated as follows (see Colby, S. R., “Calculating Synergistic and antagonistic Responses of Herbicide Combinations”, Weeds 15, pp. 20-22, 1967): • If • X is the efficacy expressed in % mortality of the untreated control for test compound A at a concentration of m ppm respectively m g/ha, • Y is the efficacy expressed in % mortality of the untreated control for test compound B at a concentration of n ppm respectively n g/ha, • E is the efficacy expressed in % mortality of the untreated control using the mixture of A and B at m and n ppm respectively m and n g/ha, • then is
(§2) [formula] • If the observed insecticidal efficacy of the combination is higher than the one calculated as “E”, then the combination of the two compounds is more than additive, i.e. there is a synergistic effect.
Tetranyechus urticae—Spray Test OP-Resistant
Solvent: 78.0 parts by weight acetone
1.5 parts by weight dimethylformamide
Emulsifier: alkylarylpolyglycol ether
(§3) To produce a suitable preparation of active compound, 1 part by weight of active compound is mixed with the stated amount of solvents and is diluted with water, containing an emulsifier concentration of 1000 ppm, to the desired concentration. Further test concentrations are prepared by dilution with emulsifier containing water.
French bean (Phaseolus vulgaris) leaf disks infected with all instars of the two spotted spidermite (Tetranychus urticae), are sprayed with a preparation of the active ingredient of the desired concentration.
After the specified period of time, mortality in % is determined. 100% means all spider mites have been killed and 0% means none of the spider mites have been killed. The mortality values determined thus are recalculated using the Colby-formula (see above).

[2] = system: Aphis gossypii; experiment: Aphis gossypii - spray test; settings: 0.4 ppm, mortality
Method: as §1, §2
Aphis gossypii—Spray Test
(§4) Solvent: 7 parts by weight of dimethylformamide
(§5) Emulsifier: alkylaryl polyglycol ether
To produce a suitable preparation of active compound, 1 part by weight of active compound is mixed with the stated amount of solvent and is diluted with water, containing an emulsifier concentration of 1000 ppm, to the desired concentration. […]
After the specified period of time the mortality in % is determined. […] The mortality values determined thus are recalculated using the Colby-formula (see above).

[3] = system: Phaedon cochleariae; experiment: Phaedon cochleariae - spray test; settings: mortality
Method: as §1, §2
Phaedon cochleariae—Spray Test
as §4, §5
as §3, with “solvent” for “solvents”
After the specified period of time mortality in % is determined. 100% means all the beetle larvae have been killed and 0% means none of the beetle larvae have been killed. The mortality values determined thus are recalculated using the Colby-formula (see above).

[4] = system: Spodoptera frugiperda; experiment: Spodoptera frugiperda - spray test; settings: mortality
Method: as §1, §2
Spodoptera frugiperda—Spray Test
as §4, §5
as §3, with “solvent” for “solvents”
Cotton leaves (Gossypium hirsutum) are treated by being sprayed with the preparation of the active compound of the desired concentration and are infested with caterpillars of the fall army worm (Spodoptera frugiperda).
After the specified period of time mortality in % is determined. 100% means all the caterpillars have been killed and 0% means none of the caterpillars have been killed. The mortality values determined thus are recalculated using the Colby-formula (see above).

O=C1C=C(N(Cc2ccc(Cl)nc2)CC(F)F)CO1 [Flupyradifurone, 4-[(6-chloro-3-pyridylmethyl)(2,2-difluoroethyl)amino]furan-2(5H)-one]
Efficacy in % after 2 days ([1]; 0.4 g ai/ha): 0% | Efficacy in % after 2 days ([1]; 1.6 g ai/ha): 0% | Efficacy in % after 2 days ([1]; 6.4 g ai/ha): 0%

O=[N+]([O-])N=C1NCCN1Cc1cnc(Cl)s1 [Imidaclothiz, (EZ)-1-(2-chloro-1,3-thiazol-5-ylmethyl)-N-nitroimidazolidin-2-ylideneamine]
Efficacy in % after 6 days [2]: 20% | Efficacy in % after 2 days ([1]; 0.8 g ai/ha): 0% | Efficacy in % after 2 days ([1]; 3.2 g ai/ha): 0% | Efficacy in % after 2 days ([1]; 12.8 g ai/ha): 0%

CN/C(=N\[N+](=O)[O-])NCc1cnc(Cl)s1 [Clothianidin, (E)-1-(2-chloro-1,3-thiazol-5-ylmethyl)-3-methyl-2-nitroguanidine]
Efficacy in % after 1 day ([3]; 2 ppm): 10% | Efficacy in % after 2 days ([3]; 2 ppm): 10% | Efficacy in % after 3 days ([3]; 2 ppm): 25% | Efficacy in % after 3 days ([3]; 4 ppm): 60% | Efficacy in % after 1 day ([3]; 8 ppm): 45% | Efficacy in % after 2 days ([3]; 8 ppm): 55% | Efficacy in % after 3 days ([3]; 8 ppm): 75% | Efficacy in % after 3 days ([4]; 24 ppm): 40% | Efficacy in % after 1 day ([4]; 48 ppm): 10%

CN1COCN(Cc2cnc(Cl)s2)C1=N[N+](=O)[O-] (mixture of isomers) [Thiametoxam, (EZ)-3-(2-chloro-1,3-thiazol-5-ylmethyl)-5-methyl-1,3,5-oxadiazinan-4-ylidene(nitro)amine]
Efficacy in % after 2 days ([1]; 0.1 g ai/ha): 0% | Efficacy in % after 2 days ([1]; 0.4 g ai/ha): 0% | Efficacy in % after 2 days ([1]; 1.6 g ai/ha): 0%

Cc1cc(F)c(N=C2SCC(=O)N2CC(F)(F)F)cc1[S+]([O-])CC(F)(F)F (centres unmarked) [Cpd of formula (I)]
Efficacy in % after 1 day ([3]; 1 ppm): 0% | Efficacy in % after 2 days ([3]; 1 ppm): 0% | Efficacy in % after 3 days ([3]; 1 ppm): 0% | Efficacy in % after 3 days ([3]; 2 ppm): 0% | Efficacy in % after 1 day ([3]; 4 ppm): 0% | Efficacy in % after 2 days ([3]; 4 ppm): 10% | Efficacy in % after 3 days ([3]; 4 ppm): 10% | Efficacy in % after 3 days ([4]; 2.4 ppm): 0% | Efficacy in % after 1 day ([4]; 4.8 ppm): 0% | Efficacy in % after 2 days ([4]; 4.8 ppm): 0% | Efficacy in % after 3 days ([4]; 4.8 ppm): 0% | Efficacy in % after 6 days ([4]; 4.8 ppm): 0% | Efficacy in % after 1 day ([4]; 9.6 ppm): 0% | Efficacy in % after 2 days ([4]; 9.6 ppm): 0% | Efficacy in % after 3 days ([4]; 9.6 ppm): 0% | Efficacy in % after 6 days ([4]; 9.6 ppm): 0% | Efficacy in % after 2 days ([1]; 0.1 g ai/ha): 0%

C/C(=N\C#N)N(C)Cc1ccc(Cl)nc1 [Acetamiprid, (E)-N^1-[(6-chloro-3-pyridyl)methyl]-N^2-cyano-N-methylacetamidine]
Efficacy in % after 2 days ([4]; 48 ppm): 0% | Efficacy in % after 3 days ([4]; 48 ppm): 0% | Efficacy in % after 6 days ([4]; 48 ppm): 10% | Efficacy in % after 1 day ([4]; 96 ppm): 10% | Efficacy in % after 2 days ([4]; 96 ppm): 20% | Efficacy in % after 3 days ([4]; 96 ppm): 40% | Efficacy in % after 6 days ([4]; 96 ppm): 50% | Efficacy in % after 2 days ([1]; 0.4 g ai/ha): 0% | Efficacy in % after 2 days ([1]; 1.6 g ai/ha): 0% | Efficacy in % after 2 days ([1]; 6.4 g ai/ha): 0%

CNC(=N[N+](=O)[O-])NCC1CCOC1 (racemic) [Dinotefuran, (EZ)-(RS)-1-methyl-2-nitro-3-(tetrahydro-3-furylmethyl)guanidine]
Efficacy in % after 6 days ([1]; 0.2 g ai/ha, after 6 days): 0%
